Measured values reported in ChEMBL document CHEMBL3769344 (J Med Chem, 2016).
pEC50: −log10 of the molar value.

How the values were obtained:
[1] = tested on: Influenza A virus; test: Antiviral activity against Influenza A virus A/WSN/33(H1N1) expressing M2 proton channel S31N mutant infected in MDCK cells assessed as reduction in plaque formation preincubated for 30 mins followed by infection measured on day 2 post infection by naphthalene black dye-based assay; format: functional, organism-based, A/WSN/1933(H1N1)
[2] = tested on: Influenza A virus; test: Antiviral activity against Influenza A virus A/WSN/33(H1N1) expressing M2 proton channel S31N mutant infected in MDCK cells assessed as plaque formation at 1 uM preincubated for 30 mins followed by infection measured on day 2 post infection by naphthalene black dye-based assay relative to control; format: functional, A/WSN/1933(H1N1)

Oc1ccc(NC23CC4CC(CC(C4)C2)C3)c(O)c1
pEC50 [1]: 5.49

COc1ccsc1-c1cc(CNC23CC4CC(CC(O)(C4)C2)C3)no1
pEC50 [1]: 6.39
Activity [2]: 33%

c1csc(-c2cc(NC34CC5CC(CC(C5)C3)C4)no2)c1
pEC50 [1]: 6.45
Activity [2]: 32%

CCCc1cc(CNC23CC4CC(CC(C4)C2)C3)no1
Activity [2]: 73%

Clc1ccccc1-c1cc(CNC23CC4CC(CC(C4)C2)C3)no1
Activity [2]: 84%

CC1(O)C2CC3CC1CC(NCc1cc(-c4cccs4)on1)(C3)C2 (configuration not stated)
Activity [2]: 27%

OC1C2CC3CC1CC(NCc1cc(-c4cccs4)on1)(C3)C2 (configuration not stated)
pEC50 [1]: 6.14
Activity [2]: 10%

C(NC12CC3CC(CC(C3)C1)C2)c1noc(C2CC2)n1
Activity [2]: 82%

c1coc(-c2cc(CNC34CC5CC(CC(C5)C3)C4)no2)c1
Activity [2]: 47%

c1ccc(-c2cc(CNC34CC5CC(CC(C5)C3)C4)no2)cc1
Activity [2]: 26%

OC12CC3CC(O)(C1)CC(NCc1cc(-c4cccs4)on1)(C3)C2
pEC50 [1]: 5.60
Activity [2]: 69%

CC(C)c1cc(CNC23CC4CC(CC(C4)C2)C3)no1
Activity [2]: 66%

c1cc(-c2cc(CNC34CC5CC(CC(C5)C3)C4)no2)cs1
Activity [2]: 47%

c1csc(-c2cc(CNC34CC5CC(C3)C3(CO3)C(C5)C4)no2)c1 (configuration not stated)
Activity [2]: 72%

c1c(CNC23CC4CC(CC(C4)C2)C3)noc1C1CC1
Activity [2]: 42%

NC12CC3CC(CC(C3)C1)C2 [AMANTADINE]
pEC50 [1]: 4.65

COc1ccsc1-c1cc(CNC23CC4CC(CC(C4)C2)C3)no1
Activity [2]: 39%

c1csc(-c2nnc(CNC34CC5CC(CC(C5)C3)C4)s2)c1
Activity [2]: 39%

c1c(CNC23CC4CC(CC(C4)C2)C3)noc1C1CCCCC1
Activity [2]: 57%

COc1ccc(-c2nc(CNC34CC5CC(CC(C5)C3)C4)no2)cc1
Activity [2]: 92%

COc1ccc(-c2cc(CNC34CC5CC(CC(C5)C3)C4)no2)cc1
Activity [2]: 59%

Clc1ccccc1-c1nc(CNC23CC4CC(CC(C4)C2)C3)no1
Activity [2]: 88%

c1c(CNC23CC4CC(CC(C4)C2)C3)noc1C1CCC1
Activity [2]: 42%

COc1cccc(-c2cc(CNC34CC5CC(CC(C5)C3)C4)no2)c1
Activity [2]: 39%

COc1ccccc1-c1nc(CNC23CC4CC(CC(C4)C2)C3)no1
Activity [2]: 66%

OC12CC3CC(C1)CC(NCc1cc(-c4cccs4)on1)(C3)C2
pEC50 [1]: 6.29
Activity [2]: 40%

COc1ccc(-c2nc(CNC34CC5CC(CC(C5)C3)C4)no2)c(OC)c1
Activity [2]: 76%

c1cc(-c2nc(CNC34CC5CC(CC(C5)C3)C4)no2)cs1
Activity [2]: 74%

c1csc(-c2cc(CNC34CC5COC(CC(C5)C3)C4)no2)c1 (configuration not stated)
Activity [2]: 58%

Fc1cccc(F)c1-c1cc(CNC23CC4CC(CC(C4)C2)C3)no1
Activity [2]: 56%

c1csc(-c2nc(CNC34CC5CC(CC(C5)C3)C4)no2)c1
Activity [2]: 66%

O=C1C2CC3CC1CC(NCc1cc(-c4cccs4)on1)(C3)C2
Activity [2]: 31%
